Measured values as given in the supplement of paper PMC11451515.

Tested on: P12-Ichikawa
Assay: cell viability relative to DMSO control; higher = less cytotoxic
Details: 48 h
Summary of the method: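 Three leukemia lines were tested: NOMO1 and SEM at 500 cells/well and P12-Ichikawa at 1000 cells/well. Each was adapted for at least four passages in each medium and seeded in 5 μl in 1536-well plates, and library compounds in DMSO were pin-dosed from 47 μM to 0.79 nM in 11 threefold steps. After 48 h at 37°C, CellTiter-Glo One luminescence was read. Viability is a percentage relative to DMSO wells on each plate, with cell-free wells as background.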

[1] = HPLM + 10% dialyzed FBS, 0.000781 µM
[2] = HPLM + 10% dialyzed FBS, 0.00234 µM
[3] = HPLM + 10% dialyzed FBS, 0.00702 µM
[4] = HPLM + 10% dialyzed FBS, 0.0211 µM
[5] = HPLM + 10% dialyzed FBS, 0.0632 µM
[6] = HPLM + 10% dialyzed FBS, 0.19 µM
[7] = HPLM + 10% dialyzed FBS, 0.569 µM
[8] = HPLM + 10% dialyzed FBS, 1.71 µM
[9] = HPLM + 10% dialyzed FBS, 5.12 µM
[10] = HPLM + 10% dialyzed FBS, 15.4 µM
[11] = HPLM + 10% dialyzed FBS, 46.1 µM
[12] = RPMI 5 mM glucose + 10% FBS, 0.000781 µM
[13] = RPMI 5 mM glucose + 10% FBS, 0.00234 µM
[14] = RPMI 5 mM glucose + 10% FBS, 0.00702 µM
[15] = RPMI 5 mM glucose + 10% FBS, 0.0211 µM
[16] = RPMI 5 mM glucose + 10% FBS, 0.0632 µM
[17] = RPMI 5 mM glucose + 10% FBS, 0.19 µM
[18] = RPMI 5 mM glucose + 10% FBS, 0.569 µM
[19] = RPMI 5 mM glucose + 10% FBS, 1.71 µM
[20] = RPMI 5 mM glucose + 10% FBS, 5.12 µM
[21] = RPMI 5 mM glucose + 10% FBS, 15.4 µM
[22] = RPMI 5 mM glucose + 10% FBS, 46.1 µM
[23] = RPMI 5 mM glucose + 10% dialyzed FBS, 0.000781 µM
[24] = RPMI 5 mM glucose + 10% dialyzed FBS, 0.00234 µM
[25] = RPMI 5 mM glucose + 10% dialyzed FBS, 0.00702 µM
[26] = RPMI 5 mM glucose + 10% dialyzed FBS, 0.0211 µM
[27] = RPMI 5 mM glucose + 10% dialyzed FBS, 0.0632 µM
[28] = RPMI 5 mM glucose + 10% dialyzed FBS, 0.19 µM
[29] = RPMI 5 mM glucose + 10% dialyzed FBS, 0.569 µM
[30] = RPMI 5 mM glucose + 10% dialyzed FBS, 1.71 µM
[31] = RPMI 5 mM glucose + 10% dialyzed FBS, 5.12 µM
[32] = RPMI 5 mM glucose + 10% dialyzed FBS, 15.4 µM
[33] = RPMI 5 mM glucose + 10% dialyzed FBS, 46.1 µM

Row | SMILES | cell viability [1] | cell viability [2] | cell viability [3] | cell viability [4] | cell viability [5] | cell viability [6] | cell viability [7] | cell viability [8] | cell viability [9] | cell viability [10] | cell viability [11] | cell viability [12] | cell viability [13] | cell viability [14] | cell viability [15] | cell viability [16] | cell viability [17] | cell viability [18] | cell viability [19] | cell viability [20] | cell viability [21] | cell viability [22] | cell viability [23] | cell viability [24] | cell viability [25] | cell viability [26] | cell viability [27] | cell viability [28] | cell viability [29] | cell viability [30] | cell viability [31] | cell viability [32] | cell viability [33]
1 | CN1CCN(CCCN2c3ccccc3Sc3ccc(Cl)cc32)CC1.O=C(O)/C=C\C(=O)O.O=C(O)/C=C\C(=O)O | 108% | 108% | 105% | 105% | 106% | 107% | 114% | 99% | 108% | 36.1% | 34.8% | 119% | 110% | 125% | 126% | 119% | 137% | 122% | 112% | 114% | 29.5% | 31.2% | 106% | 105% | 106% | 108% | 116% | 112% | 111% | 110% | 104% | 28.1% | 32.1%
2 | CC(C)n1cnc2c(NCCc3ccc(O)cc3)nc(-c3csc4ccccc34)nc21 | 105% | 111% | 109% | 114% | 119% | 115% | 107% | 117% | 24.9% | 6.01% | 2.93% | 106% | 108% | 116% | 107% | 116% | 112% | 116% | 129% | 125% | 53.5% | 3.44% | 98.3% | 109% | 112% | 112% | 119% | 114% | 118% | 119% | 130% | 38.6% | 2.43%
3 | CN(C(Cc1ccc(O[S+](=O)([O-])c2cccc3cnccc23)cc1)C(=O)N1CCN(c2ccccc2)CC1)[S+](=O)([O-])c1cccc2cnccc12 (stereo not drawn) | 102% | 103% | 106% | 110% | 114% | 105% | 114% | 102% | 93.1% | 89.2% | 70.5% | 107% | 110% | 109% | 106% | 108% | 103% | 103% | 97.7% | 90.6% | 71.8% | 57.3% | 104% | 108% | 105% | 121% | 109% | 105% | 113% | 97.8% | 102% | 84.8% | 58.7%
4 | C=CC(=O)Nc1ccc2ncnc(Nc3ccc(OCc4cccc(F)c4)c(Cl)c3)c2c1 | 97% | 111% | 104% | 105% | 113% | 109% | 97.2% | 105% | 85.1% | 10.7% | 10.7% | 97.3% | 105% | 109% | 105% | 110% | 107% | 118% | 103% | 83.1% | 13.4% | 12.3% | 97.1% | 111% | 117% | 122% | 111% | 118% | 116% | 107% | 81% | 21.4% | 16.4%
5 | C[C@H]1Oc2cc(cnc2N)-c2c(nn(C)c2C#N)CN(C)C(=O)c2ccc(F)cc21 | 118% | 120% | 119% | 120% | 120% | 124% | 122% | 110% | 112% | 112% | 96.3% | 120% | 122% | 123% | 113% | 123% | 119% | 119% | 112% | 114% | 114% | 105% | – | – | – | – | – | – | – | – | – | – | –
6 | CCN(CC)CCCC(C)Nc1nc(C)cc(Nc2ccc3nc(C)cc(N)c3c2)n1 (stereo not drawn) | 101% | 107% | 109% | 117% | 122% | 122% | 126% | 115% | 130% | 114% | 118% | 108% | 109% | 104% | 121% | 117% | 126% | 124% | 112% | 129% | 107% | 112% | 107% | 113% | 111% | 120% | 117% | 123% | 126% | 124% | 126% | 118% | 101%
7 | CC[C@@H]1C(=O)N(C)c2cnc(Nc3ccc(C(=O)NC4CCN(C)CC4)cc3OC)nc2N1C1CCCC1 | 116% | 123% | 112% | 84.8% | 13.1% | 13.3% | 13.4% | 16% | 16.5% | 11.4% | 4.01% | 126% | 123% | 116% | 107% | 15.6% | 15.3% | 17.5% | 15.4% | 15% | 12.9% | 4.84% | 116% | 124% | 121% | 114% | 19.4% | 18.7% | 19.7% | 20.8% | 21.2% | 17.8% | 4.69%
8 | CCC(C1CCC(C)C(O1)C(C)C(O)C(C)C(=O)C(CC)C2OC\3(O[C@]4(CC[C@@](C)(O4)C5CC[C@@](O)(CC)C(C)O5)C(O)\C=C3)C(C)CC2C)C([O-])=O (stereo partly drawn) | 103% | 112% | 109% | 101% | 106% | 106% | 105% | 82.8% | 74.5% | 74.8% | 64.5% | 85% | 111% | 101% | 111% | 104% | 109% | 100% | 73.7% | 60.9% | 56.1% | 42.5% | 96.4% | 107% | 109% | 113% | 112% | 108% | 86.2% | 68.8% | 55.7% | 44.9% | 41.1%
9 | COc1cc2ncn(-c3cc(OCc4ccccc4C(F)(F)F)c(C(N)=O)s3)c2cc1OC | 114% | 122% | 108% | 112% | 121% | 110% | 95.2% | 45.2% | 13.8% | 11.9% | 11.8% | 117% | 112% | 121% | 112% | 110% | 111% | 115% | 71.5% | 12.2% | 11.8% | 11.1% | 113% | 111% | 111% | 112% | 123% | 109% | 103% | 85.3% | 19.5% | 17.4% | 12.8%
10 | N=C(N)Nc1ccc(C(=O)Oc2ccc3cc(C(=N)N)ccc3c2)cc1 | 88.3% | 104% | 98.8% | 92.5% | 103% | 95.5% | 88.6% | 83.9% | 87.9% | 87.4% | 72.3% | 96.4% | 93% | 99.4% | 90.5% | 102% | 95.9% | 91.1% | 97% | 88.4% | 95.7% | 52% | 83.8% | 92.3% | 86.5% | 83.4% | 89.5% | 85% | 86.7% | 87.1% | 85.1% | 83.7% | 53%
11 | Cc1nc(N)ncc1-c1nc(N2CCOCC2)c2sc(C(C)(C)O)cc2n1 | 125% | 122% | 119% | 113% | 83% | 10.9% | 7.79% | 5.43% | 4.61% | 4.97% | 4.1% | 116% | 122% | 114% | 120% | 116% | 121% | 18.5% | 7.92% | 6.16% | 5.72% | 5.39% | 124% | 118% | 125% | 120% | 122% | 118% | 13.2% | 8.68% | 7.11% | 6.92% | 5.85%
12 | Oc1c(Cl)cc(Cl)c2cccnc12 | 107% | 112% | 109% | 100% | 105% | 107% | 112% | 103% | 109% | 97.4% | 70.6% | 100% | 95.4% | 109% | 107% | 108% | 102% | 101% | 101% | 96.2% | 80.8% | 30.5% | 99.1% | 99.4% | 110% | 95.2% | 102% | 101% | 103% | 99.1% | 96.8% | 85.5% | 21.8%
13 | COc1cc(OC)c(C(=O)CCCN2CCCC2)c(OC)c1 | 116% | 120% | 128% | 119% | 120% | 116% | 112% | 113% | 118% | 117% | 116% | 119% | 123% | 132% | 130% | 125% | 124% | 122% | 109% | 112% | 111% | 111% | – | – | – | – | – | – | – | – | – | – | –
14 | O=C(O)Cc1cccc(OCCCN(Cc2cccc(C(F)(F)F)c2Cl)CC(c2ccccc2)c2ccccc2)c1 | 117% | 115% | 116% | 121% | 119% | 115% | 116% | 108% | 108% | 102% | 108% | – | – | – | – | – | – | – | – | – | – | – | 119% | 119% | 119% | 124% | 124% | 122% | 118% | 101% | 108% | 98.8% | 103%
15 | CC1=C(/C=C/C(C)=C/C=C/C(C)=C/C(=O)O)C(C)(C)CCC1 | 116% | 125% | 121% | 121% | 127% | 119% | 132% | 126% | 123% | 111% | 104% | – | – | – | – | – | – | – | – | – | – | – | – | – | – | – | – | – | – | – | – | – | –
16 | CN(C)CCc1c[nH]c2ccc(C[S+](=O)([O-])N3CCCC3)cc12 | 104% | 105% | 110% | 114% | 114% | 113% | 114% | 111% | 107% | 110% | 84.4% | 106% | 110% | 110% | 116% | 109% | 115% | 118% | 111% | 111% | 99.8% | 87.5% | 97.1% | 101% | 108% | 106% | 113% | 107% | 117% | 113% | 104% | 96% | 84.2%
